From patent publication US20220323406A1, “METHODS AND COMPOSITIONS FOR DIFFERENTIATING STEM CELLS” (Massachusetts Institute of Technology, priority 2019, published 2022)

Key:
[1] = system: ENR+CD organoids (ISC to Paneth cell differentiation); experiment: Primary screen: CCh-stimulated lysozyme secretion LYZ.S, 2.5-D 384-well ENR+CD organoid differentiation; format: cell-based, mouse; settings: primary screen; for Dose.FC.LYZ.S: FC vs plate median
Description: (§1) High-throughput screening.

[2] = system: ENR+CD organoids; experiment: Primary screen: ATP (CellTiter-Glo 3D, CTG) cell number/viability, 2.5-D 384-well ENR+CD organoids; settings: primary screen; for Dose.FC.CTG: FC vs plate median; for Z.CTG: standard z score;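 for all read-outs here: compounds given at plating and again on day 3 over a 6-day differentiation from ENR+CV stem-cell-enriched precursors, ATP measured on day 6, plate median as control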
[3] = system: ENR+CD organoids (ISC to Paneth cell differentiation); experiment: Primary screen: basal (non-stimulated) lysozyme secretion LYZ.NS, 2.5-D 384-well ENR+CD organoid differentiation; format: cell-based, mouse; settings: primary screen; for Z.LYZ.NS: standard z score; for Dose.FC.LYZ.NS: FC vs plate median
Description: as §1

Row | SMILES | Dose.FC.LYZ.S (log2 fold change) ([1]; dose 0.08 uM) | Dose.FC.LYZ.S (log2 fold change) ([1]; dose 0.40 uM) | Dose.FC.LYZ.S (log2 fold change) ([1]; dose 2.00 uM) | Dose.FC.LYZ.S (log2 fold change) ([1]; dose 10.00 uM) | Dose.FC.CTG (log2 fold change) ([2]; dose 0.08 uM) | Dose.FC.CTG (log2 fold change) ([2]; dose 0.40 uM) | Dose.FC.CTG (log2 fold change) ([2]; dose 2.00 uM) | Dose.FC.CTG (log2 fold change) ([2]; dose 10.00 uM) | Dose.FC.LYZ.NS (log2 fold change) ([3]; dose 0.08 uM) | Z.LYZ.NS (standard z score) ([3]; dose 0.08 uM) | Dose.FC.LYZ.NS (log2 fold change) ([3]; dose 0.40 uM) | Z.LYZ.NS (standard z score) ([3]; dose 0.40 uM) | Dose.FC.LYZ.NS (log2 fold change) ([3]; dose 2.00 uM) | Z.LYZ.NS (standard z score) ([3]; dose 2.00 uM) | Dose.FC.LYZ.NS (log2 fold change) ([3]; dose 10.00 uM) | Z.LYZ.NS (standard z score) ([3]; dose 10.00 uM) | also measured
1 | Nc1cccc2c1CN(C1CCC(=O)NC1=O)C2=O (stereo not shown) [Lenalidomide (CC-5013)] | 0.099 | 0.176 | 0.025 | −0.045 | 0.046 | −0.016 | −0.250 | −0.316 | 0.147 | 1.283 | 0.099 | 0.863 | 0.071 | 0.615 | −0.041 | −0.360 | Z.CTG (standard z score) ([2]; dose 0.08 uM): 0.110; Z.CTG (standard z score) ([2]; dose 0.40 uM): −0.037; Z.CTG (standard z score) ([2]; dose 2.00 uM): −0.596; Z.CTG (standard z score) ([2]; dose 10.00 uM): −0.754
2 | N#Cc1ccc(C(c2ccc(C#N)cc2)n2cncn2)cc1 [Letrozole] | 0.040 | 0.150 | 0.006 | 0.006 | −0.013 | 0.101 | 0.099 | 0.171 | 0.065 | 0.570 | 0.128 | 1.115 | 0.009 | 0.082 | −0.008 | −0.068 | –
3 | CCN1CCC[C@H]1CNC(=O)c1cc(S(N)(=O)=O)ccc1OC [Levosulpiride] | −0.017 | 0.128 | 0.124 | −0.026 | −0.043 | −0.006 | 0.031 | 0.090 | 0.013 | 0.114 | 0.024 | 0.205 | 0.051 | 0.441 | −0.028 | −0.240 | –
4 | CCN(CC)CC(=O)Nc1c(C)cccc1C [Lidocaine] | 0.083 | 0.026 | −0.038 | −0.009 | −0.079 | −0.153 | 0.034 | −0.256 | 0.106 | 0.927 | 0.017 | 0.144 | 0.001 | 0.008 | 0.019 | 0.167 | –
5 | CC#CCn1c(N2CCC[C@@H](N)C2)nc2c1c(=O)n(Cc1nc(C)c3ccccc3n1)c(=O)n2C [Linagliptin] | 0.140 | 0.047 | −0.032 | 0.050 | 0.163 | 0.209 | 0.023 | −0.011 | 0.208 | 1.809 | 0.055 | 0.478 | 0.021 | 0.182 | 0.080 | 0.695 | –
6 | Nc1nc(OCc2cc(Br)cs2)c2[nH]cnc2n1 [Lomeguatrib] | −0.082 | −0.022 | −0.055 | −0.138 | −0.426 | −0.309 | 0.075 | −0.080 | −0.050 | −0.437 | −0.019 | −0.161 | −0.022 | −0.193 | −0.104 | −0.908 | –
7 | CCOC(=O)N1CCC(=C2c3ccc(Cl)cc3CCc3cccnc32)CC1 [Loratadine] | −0.076 | 0.011 | −0.148 | −0.148 | −0.292 | 0.145 | −0.204 | −0.120 | 0.011 | 0.093 | −0.001 | −0.005 | −0.108 | −0.938 | −0.101 | −0.881 | –
8 | CCCCc1nc(Cl)c(CO)n1Cc1ccc(-c2ccccc2-c2nnn[n-]2)cc1.[K+] [Losartan Potassium (DuP 753)] | −0.017 | 0.027 | −0.080 | −0.025 | −0.152 | −0.175 | −0.081 | −0.137 | 0.052 | 0.449 | 0.038 | 0.329 | −0.042 | −0.362 | 0.062 | 0.540 | Z.CTG (standard z score) ([2]; dose 0.08 uM): −0.362; Z.CTG (standard z score) ([2]; dose 0.40 uM): −0.418; Z.CTG (standard z score) ([2]; dose 2.00 uM): −0.193; Z.CTG (standard z score) ([2]; dose 10.00 uM): −0.328
9 | CC[C@H](C)C(=O)O[C@H]1C[C@@H](C)C=C2C=C[C@H](C)[C@H](CC[C@@H]3C[C@@H](O)CC(=O)O3)[C@H]21 [Lovastatin] | −0.023 | −0.049 | −0.398 | −0.409 | −0.322 | −0.492 | −1.174 | −1.391 | 0.002 | 0.017 | −0.057 | −0.492 | −0.279 | −2.430 | −0.271 | −2.362 | –
10 | CC(C)CCNC(=O)[C@H](CC(C)C)NC(=O)[C@H]1O[C@@H]1C(=O)O [Loxistatin Acid (E-64C)] | 0.125 | 0.105 | 0.037 | 0.021 | 0.086 | 0.156 | 0.080 | 0.094 | 0.147 | 1.283 | 0.061 | 0.534 | 0.055 | 0.482 | 0.004 | 0.031 | Z.CTG (standard z score) ([2]; dose 0.08 uM): 0.206; Z.CTG (standard z score) ([2]; dose 0.40 uM): 0.373; Z.CTG (standard z score) ([2]; dose 2.00 uM): 0.191; Z.CTG (standard z score) ([2]; dose 10.00 uM): 0.224
11 | C=CCn1c(=O)c2cnc(Nc3ccc(N4CCN(C)CC4)cc3)nc2n1-c1cccc(C(C)(C)O)n1 [MK-1775] | – | – | – | – | – | – | – | – | – | – | – | – | – | – | – | – | Dose.FC.LYZ.S ([1]; dose 0.08 uM): 0.066 log2 fold change; Dose.FC.LYZ.S ([1]; dose 0.40 uM): −0.217 log2 fold change; Dose.FC.LYZ.S ([1]; dose 2.00 uM): −0.208 log2 fold change; Dose.FC.LYZ.S ([1]; dose 10.00 uM): −0.254 log2 fold change; Dose.FC.CTG ([2]; dose 0.08 uM): 0.165 log2 fold change; Dose.FC.CTG ([2]; dose 0.40 uM): −0.450 log2 fold change; Dose.FC.CTG ([2]; dose 2.00 uM): −0.804 log2 fold change; Dose.FC.CTG ([2]; dose 10.00 uM): −1.026 log2 fold change; Z.LYZ.NS ([3]; dose 0.08 uM): 0.334; Z.LYZ.NS ([3]; dose 0.40 uM): −1.331; Z.LYZ.NS ([3]; dose 2.00 uM): −1.869; Z.LYZ.NS ([3]; dose 10.00 uM): −1.574; Dose.FC.LYZ.NS ([3]; dose 0.08 uM): 0.038 log2 fold change; Dose.FC.LYZ.NS ([3]; dose 0.40 uM): −0.153 log2 fold change; Dose.FC.LYZ.NS ([3]; dose 2.00 uM): −0.215 log2 fold change; Dose.FC.LYZ.NS ([3]; dose 10.00 uM): −0.181 log2 fold change
12 | Cl.Cl.NC1(c2ccc(-c3nc4ccn5c(=O)[nH]nc5c4cc3-c3ccccc3)cc2)CCC1 [MK-2206 2HCl] | – | – | – | – | – | – | – | – | – | – | – | – | – | – | – | – | Dose.FC.LYZ.S ([1]; dose 0.08 uM): 0.071 log2 fold change; Dose.FC.LYZ.S ([1]; dose 0.40 uM): 0.083 log2 fold change; Dose.FC.LYZ.S ([1]; dose 2.00 uM): −0.239 log2 fold change; Dose.FC.LYZ.S ([1]; dose 10.00 uM): −0.367 log2 fold change; Z.CTG ([2]; dose 0.08 uM): 0.169; Z.CTG ([2]; dose 0.40 uM): −0.055; Z.CTG ([2]; dose 2.00 uM): −0.425; Z.CTG ([2]; dose 10.00 uM): −1.290; Dose.FC.CTG ([2]; dose 0.08 uM): 0.071 log2 fold change; Dose.FC.CTG ([2]; dose 0.40 uM): −0.023 log2 fold change; Dose.FC.CTG ([2]; dose 2.00 uM): −0.178 log2 fold change; Dose.FC.CTG ([2]; dose 10.00 uM): −0.540 log2 fold change; Z.LYZ.NS ([3]; dose 0.08 uM): 0.205; Z.LYZ.NS ([3]; dose 0.40 uM): −0.550; Z.LYZ.NS ([3]; dose 2.00 uM): −1.587; Z.LYZ.NS ([3]; dose 10.00 uM): −2.058; Dose.FC.LYZ.NS ([3]; dose 0.08 uM): 0.024 log2 fold change; Dose.FC.LYZ.NS ([3]; dose 0.40 uM): −0.063 log2 fold change; Dose.FC.LYZ.NS ([3]; dose 2.00 uM): −0.182 log2 fold change; Dose.FC.LYZ.NS ([3]; dose 10.00 uM): −0.236 log2 fold change
